Patent US20220280594A1, “APPLICATION OF POLYPEPTIDE OR DERIVATIVE THEREOF” (CHENGDU HUITAI BIOMEDICINE CO., LTD., priority 2019, published 2022)
Ends that are not written are not given here. PEG = not defined here

How the values were obtained:
Assay type in all cases: cell-based
[1] = system: human pharyngeal squamous-cell carcinoma cells (Fadu); assay: scratch assay, migration of Fadu cells; settings: 10 μM, 48 hours, control group 28.76 ± 4.08
Method: (§1) In the scratch assay, the cell migration rate was negatively correlated with the inhibitory effect of the drug component on tumor cell migration ability. The cell migration inhibition experiment was described as follows: tumor cells were cultured in vitro, cells in logarithmic growth phase were collected and seeded evenly in a 24-well plate at a density of 1-2×10^5 cells/well; the cells were cultured in a cell incubator until a monolayer was formed; a scratch tool was used to make a “-” (straight) scratch on the monolayer of cells; the cells were washed 1-3 times with PBS, and a medium (with 2% fetal bovine serum) containing specific test components was added to the culture. Experimental grouping: PBS control group; polypeptide or derivative thereof treatment group (N1-N54), 10 μM. Three independent parallel wells were set up in each group, and the cells were cultured continuously in a cell incubator for 48 hours. […] At least 3 representative images for each well were taken. ImageJ software was used to count the migration distance of the cells, and the cell migration rate was calculated as: cell migration rate (%)=(width of original scratch−width of current scratch)/width of original scratch×100.
This example was a scratch assay to evaluate the inhibitory effect of the polypeptide or derivative thereof (N1-N54) on the migration ability of human pharyngeal squamous-cell carcinoma cells (Fadu). The experimental method was as described in Example 2.

[2] = system: human breast cancer cells (MDA-MB-453); assay: scratch assay, migration of MDA-MB-453 cells; settings: MDA-MB-453, 10 μM, 48 hours; control group 32.42 ± 2.04
Method: as §1
This example was a scratch assay to evaluate the inhibitory effect of the polypeptide or derivative thereof (N1-N54) on the migration ability of human breast cancer cells (MDA-MB-453). The experimental method was as described in Example 2.

[3] = system: human prostate cancer cells (22RV1); assay: scratch assay, migration of 22RV1 cells; settings: 22RV1, 10 μM, 48 hours; control group 25.41 ± 5.01
Method: as §1
This example was a scratch assay to evaluate the inhibitory effect of the polypeptide or derivative thereof (N1-N54) on the migration ability of human prostate cancer cells (22RV1). The experimental method was as described in Example 2.

[4] = system: human liver cancer cells (HepG2); assay: scratch assay, migration of HepG2 cells; settings: HepG2, 10 μM, 48 hours; control group 71.01 ± 6.63
Method: as §1
This example was a scratch assay to evaluate the inhibitory effect of the polypeptide or derivative thereof (N1-N54) on the migration ability of human liver cancer cells (HepG2). The experimental method was as described in Example 2.

[5] = system: human pancreatic cancer cells (PANC-1); assay: transwell migration assay, PANC-1 cells; settings: PANC-1 transwell migration, 10 μM, 24 hours; control group 360 ± 60
Method: The Transwell chamber system was used in the transwell cell migration experiment. The chamber has an upper layer and a lower layer, which are separated by an artificial semipermeable membrane in the middle. Cells that have migrated through the semi-permeable membrane will attach to the lower surface of the semi-permeable membrane. The migration ability is evaluated by counting the number of cells on the lower surface of the semi-permeable membrane. The number of cells that have migrated is negatively correlated with the inhibitory effect of the drug on the migration ability of the tumor cells. Transwell migration assay was performed as follows: tumor cells were cultured in vitro, cells in logarithmic growth phase were collected, and cell suspension was prepared with fresh serum-free medium at a density of 2-3×10^5 cells/mL. Cells were inoculated, 100 μL/well cell suspension (serum-free medium) in the upper chamber and 600 μL/well complete culture medium in the lower chamber. After incubated in 37° C., 5% CO2 incubator for 4-5 hours, serum-free medium (100 μL/well) was added to the control group, and serum-free medium containing polypeptide or derivative thereof (N1-N54) was added to the upper chamber of the treatment group (100 μL/well), the final concentration of the peptide or derivative thereof in the upper chamber was 10 μM. The cells were incubated continuously for 24 hours, and then fixed with methanol and stained with crystal violet. Images were taken under a microscope and the number of migrated cells was counted with ImageJ.
This example was a transwell cell migration experiment to evaluate the inhibitory effect of the polypeptide or derivative thereof (N1-N54) on the migration ability of human pancreatic cancer cells (PANC-1). The experimental method was as described in Example 3.

[6] = system: human lung squamous carcinoma cells (NCI-H226); assay: scratch assay, migration of NCI-H226 cells; settings: NCI-H226, 10 μM, 48 hours; control group 65.31 ± 3.19
Method: as §1
This example was a scratch assay to evaluate the inhibitory effect of the polypeptide or derivative thereof (N1-N54) on the migration ability of human lung squamous carcinoma cells (NCI-H226). The experimental method was as described in Example 2.

[7] = system: human breast cancer cells (MCF-7); assay: scratch assay, migration of MCF-7 cells; settings: MCF-7, 10 μM, 48 hours; control group 30.97 ± 1.79
Method: as §1
This example was a scratch assay to evaluate the inhibitory effect of the polypeptide or derivative thereof (N1-N54) on the migration ability of human breast cancer cells (MCF-7). The experimental method was as described in Example 2.

[8] = system: human oral epidermoid carcinoma KB cells; assay: scratch assay, migration of KB cells; settings: 10 μM, 48 hours, control group 54.03 ± 4.21
Method: as §1
This example was a scratch assay to evaluate the inhibitory effect of the polypeptide or derivative thereof (N1-N54) on the migration ability of human oral epidermoid carcinoma cells (KB). The experimental method was as described in Example 2.

Substance | Migration rate (%) (mean ± SD, P) [1] | Migration rate (%) (mean ± SD, P) [2] | Migration rate (%) (mean ± SD, P) [3] | Migration rate (%) (mean ± SD, P) [4] | Number of cells (mean ± SD, P), migrated cells [5] | Migration rate (%) (mean ± SD, P) [6] | Migration rate (%) (mean ± SD, P) [7] | Migration rate (%) (mean ± SD, P) [8]
N1: polypeptide with the amino acid sequence set forth in SEQ ID NO: 1 (YRVRFLAKENVTQDAEDN) | 5.68 ± 2.86,*** % | 13.05 ± 2.05,** % | 7.26 ± 3.36,** % | 17.42 ± 7.70,*** % | 245 ± 27,* | 12.68 ± 9.07,*** % | 11.18 ± 2.89,** % | 7.49 ± 2.99,*** %
N2: SEQ ID NO: 1 with deletion of one amino acid (position 18) at the carboxyl terminal (YRVRFLAKENVTQDAED) | 10.71 ± 2.30,** % | 12.96 ± 3.13,** % | 6.48 ± 2.97,** % | 13.05 ± 6.50,*** % | 221 ± 35,** | 12.42 ± 8.44,*** % | 12.32 ± 2.26,** % | 6.82 ± 3.25,*** %
N3: SEQ ID NO: 1 with deletion of position 18 and PEG modification at the amino terminal ({PEG}-YRVRFLAKENVTQDAED; reading uncertain) | 12.97 ± 3.58,** % | 13.04 ± 3.5,** % | 6.15 ± 4.65,** % | 17.57 ± 6.98,*** % | 224 ± 28,** | 16.38 ± 6.85,*** % | 10.39 ± 2.07,** % | 9.95 ± 2.19,*** %
N4: SEQ ID NO: 1 with deletion of positions 15-18 and positions 1-3 (RFLAKENVTQD) | 14.32 ± 2.67,** % | 15.74 ± 4.83,* % | 13.44 ± 3.24,* % | 25.37 ± 6.11,*** % | 268 ± 20,* | 10.00 ± 10.27,** % | 13.6 ± 2.28,** % | 5.96 ± 2.32,*** %
N5: SEQ ID NO: 1 with addition of one amino acid at the carboxyl terminal and deletion of positions 1-3 (RFLAKENVTQDAEDNC) | 9.07 ± 2.08,*** % | 14.74 ± 3.23,** % | 10.37 ± 3.53,* % | 19.84 ± 5.04,*** % | 234 ± 27,* | 10.65 ± 9.94,*** % | 14.50 ± 2.66,** % | 9.62 ± 3.84,*** %
N6: SEQ ID NO: 1 with deletion of four amino acids at the carboxyl terminal (positions 15-18) (YRVRFLAKENVTQD) | 11.34 ± 2.04,** % | 13.01 ± 3.14,** % | 12.31 ± 2.85,* % | 16.65 ± 6.70,*** % | 144 ± 12,*** | 19.72 ± 8.97,** % | 15.69 ± 4.09,* % | 15.79 ± 3.16,** %
N7: SEQ ID NO: 1 with addition of one amino acid at the carboxyl terminal and substitution A15R (YRVRFLAKENVTQDREDNC) | 13.12 ± 3.56,** % | 12.64 ± 2.73,** % | 6.54 ± 2.24,** % | 11.54 ± 9.00,*** % | 132 ± 15,*** | 18.83 ± 4.53,*** % | 12.59 ± 3.23,** % | 11.11 ± 3.86,*** %
N8: SEQ ID NO: 1 with deletion of positions 15-18 and positions 3, 4 and 11 (YRFLAKENTQD) | 9.54 ± 5.75,** % | 9.44 ± 2.09,*** % | 8.75 ± 1.98,** % | 18.65 ± 6.88,*** % | 133 ± 20,*** | 20.29 ± 4.29,*** % | 11.56 ± 2.35,** % | 11.55 ± 1.62,*** %
N9: SEQ ID NO: 1 with deletion of positions 15-18 and PEG modification at the amino terminal ({PEG}-YRVRFLAKENVTQD; reading uncertain) | 16.82 ± 3.57,* % | 7.19 ± 2.38,*** % | 14.84 ± 2.96,* % | 35.11 ± 5.16,** % | 148 ± 16,*** | 35.47 ± 5.20,** % | 5.28 ± 2.11,*** % | 9.27 ± 2.63,*** %
N10: SEQ ID NO: 1 with deletion of positions 15-18 and 1-3 and PEG modification at the carboxyl terminal (RFLAKENVTQD-{PEG}; reading uncertain) | 15.93 ± 4.73,* % | 6.9 ± 1.65,*** % | 13.39 ± 2.3,* % | 39.45 ± 5.00,** % | 254 ± 20,* | 17.75 ± 5.87,*** % | 9.55 ± 2.72,** % | 13.87 ± 3.48,*** %
N11: SEQ ID NO: 1 with deletion of positions 15-18 and 1-3 and PEG modification at the amino terminal ({PEG}-RFLAKENVTQD; reading uncertain) | 19 ± 5.37,* % | 4.49 ± 1.6,*** % | 9.43 ± 2.23,** % | 53.36 ± 5.49,* % | 239 ± 26,* | 21.77 ± 5.03,*** % | 9.34 ± 3.74,** % | 8.29 ± 1.96,*** %
